These results are taken from publication PMC9848300, “Discovery of novel enasidenib analogues targeting inhibition of mutant isocitrate dehydrogenase 2 as antileukaemic agents” (Journal of Enzyme Inhibition and Medicinal Chemistry, 2023).

In general, IC50 refers to the point on the concentration scale where inhibition reaches its midpoint. A lower IC50 goes with higher potency. Broadly, the inhibition is the drop in the measured response relative to a control, in per cent. As usually defined, the GI50 is the concentration that inhibits growth by half.

For data set [1], the system named is 60 human subpanel cancer cell lines. Briefly: NCI 60 antitumor screening, mean over the panel (single dose). Format: cell-based. The settings on record: mean over 60 cancer cell lines, single dose 10 μM. Here is the method:
Initially, the anticancer effects of target compounds have been assessed at a single (10 μM) dose. The obtained data have been reported as mean-graph of the percent growth (G%) of the treated cancer cells. Percentage growth inhibition (GI%) is calculated (100 − G%) and pronounced in Table 1. […] Target compounds in series (III) with manipulated linkers disclosed lower potency. Superiorly, eight s-triazine derivatives from the three series (6a, 6c, 6d, 7a, 7g, 7i, 7l, and 8b) have shown potent broad-spectrum anticancer activity against most the examined cell lines, whereas most of the remaining triazine derivatives, 20 derivatives, have exerted selective anti-proliferative actions towards certain cancer cell lines (Supplementary).
The antitumor screening was performed for 60 human cancer cell lines under the protocol of NCI (www.dtp.nci.nih.gov), the Drug Evaluation Branch, Bethesda, MD. All submitted compounds were nominated based on the degree of structural diversity and computer modelling techniques for evaluation of their anticancer activity. The screening process for antineoplastic activity passes through two successive levels, starting with the assessment of target compounds at a single dose of 10 μM against 60 cancer cell lines on nine types of human tumours. These experiments were done on a triplicate following. The output from the single‐dose screening was covered as a mean graph, and then, analysed by the COMPARE program. Finally, the compounds which disclosed subpanel cancer cell growth (G %) equal to or less than 10% in at least eight cancer cell lines get to pass the assessment against the 60 cell lines at five doses (0.01–100 μM). By using GraphPad Prism version 9.0 (Graphpad Software Inc., La Jolla, CA), GI50, TGI, as well as LC50 dose‐response parameters were computed and presented for each compound (Supplementary information)[55–57].

The next data set is described as follows: in vitro. The settings on record: human.
The test system of the next data set is RXF 393. Kind of data set: NCI 60 antitumor screening (single dose / five doses). Format: cell-based. The settings on record: Homo sapiens; for inhibition at 10 µM: RXF 393 (renal cancer), single dose 10 μM, read-out: Growth inhibition percentage (GI %); for GI50: RXF 393, five doses (0.01–100 μM), read-out: GI50.
The subject of a further data set is RPMI-8226. The description is as above. Format: cell-based. The note with it: Homo sapiens; for inhibition at 10 µM: RPMI-8226 (leukaemia), single dose 10 μM, read-out: Growth inhibition percentage (GI %); for GI50: RPMI-8226, five doses (0.01–100 μM), read-out: GI50.
The target in a further data set is T1, IDH2^R140Q (Homo sapiens, UniProt P48735, R140Q).
T1 sequence (P48735 40-452 R140Q): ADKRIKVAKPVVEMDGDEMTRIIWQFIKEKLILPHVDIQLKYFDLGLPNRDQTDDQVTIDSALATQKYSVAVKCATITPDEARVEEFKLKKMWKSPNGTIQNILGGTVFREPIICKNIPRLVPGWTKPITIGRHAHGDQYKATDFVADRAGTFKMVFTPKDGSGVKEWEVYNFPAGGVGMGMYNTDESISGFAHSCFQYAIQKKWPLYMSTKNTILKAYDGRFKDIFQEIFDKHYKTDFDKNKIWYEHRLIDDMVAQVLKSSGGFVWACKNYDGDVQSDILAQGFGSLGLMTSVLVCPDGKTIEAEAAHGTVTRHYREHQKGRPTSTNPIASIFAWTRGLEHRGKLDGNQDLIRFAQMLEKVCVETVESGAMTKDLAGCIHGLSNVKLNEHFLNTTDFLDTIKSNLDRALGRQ
Kind of data set: biochemical.

Another data set relates to HL-60(TB). Kind of data set: NCI 60 antitumor screening (single dose / five doses). The note with it: Homo sapiens; for inhibition at 10 µM: HL-60(TB) (leukaemia), single dose 10 μM, read-out: Growth inhibition percentage (GI %); for GI50: HL-60(TB), five doses (0.01–100 μM), read-out: GI50. Format: cell-based.
Another data set deals with active Caspase 9. Kind of data set: Western blot analysis for apoptotic markers. Format: cell-based, human. The note with it: HL-60(TB) cells. Here is the method:
(§1) Cysteine-containing aspartic acid-specific proteases, caspases provide essential links in cell controlling the apoptotic machinery[45]^,[46]. For this reason, this study was further extended to investigate the mechanism of compound 6c to provoke apoptosis in HL-60(TB) leukaemia cell line.
(§2) Compound 6c was incubated with the seeded cells following the procedure described by W. Neal Burnette[60].
A general note: In western blotting, separated proteins are transferred to a membrane and probed.

The test system of a further data set is active Caspase 3. Kind of data set: Western blot analysis for apoptotic markers. Format: cell-based, human. The note with it: HL-60(TB) cells. Here is the method: as §1, §2
In the next data set the test system is HCT-15. Kind of data set: NCI 60 antitumor screening (single dose / five doses). The settings on record: Homo sapiens; for inhibition at 10 µM: HCT-15 (colon cancer), single dose 10 μM, read-out: Growth inhibition percentage (GI %); for GI50: HCT-15, five doses (0.01–100 μM), read-out: GI50. Format: cell-based.
The subject of another data set is HL-60(TB) cells. Briefly: Cell cycle analysis (PI, flow cytometry). Format: cell-based, human. The settings on record: 24 h. Here is the method: Targeting cancer cell cycle has been emerged as a viable approach for cancer treatment. To recognise the role of compound 6c in GI of cancer cells, and induction of apoptosis in different phases, DNA flow cytometric analysis was performed to measure the effect of compound 6c on cell cycle progression for leukaemia, HL-60(TB) cancer cells.
Following that, two runs of wash with ice-cold phosphate-buffered saline (PBS) were performed. And then, the treated HL-60(TB) cells were centrifuged and frozen in ethanol (70%, ice-cold) then washed in PBS, resuspended with RNase ([…]), stained with PI ([…]), finally analysed by flow cytometry using a FACS Calibur (Becton Dickinson, BD; Franklin Lakes, NJ). To calculate the cell cycle distributions, CellQuest software version 5.1 (Becton Dickinson) was used.

A further data set has as its target T2, wild type IDH2 (Homo sapiens, UniProt P48735).
T2 sequence (P48735 40-452): T1 sequence (P48735 40-452 R140Q) with Q101R
Kind of data set: IDH2 enzyme inhibition assay (wild type IDH Assay Kit).

The test system of the next data set is SF-295. Briefly: NCI 60 antitumor screening (single dose / five doses). Format: cell-based. The note with it: Homo sapiens; for inhibition at 10 µM: SF-295 (CNS cancer), single dose 10 μM, read-out: Growth inhibition percentage (GI %); for GI50: SF-295, five doses (0.01–100 μM), read-out: GI50.

Positions count from the first letter of the chain named. Where “and” joins values, the source holds several entries; their conditions need not be identical. Identical values can stand only once.

Procedure for in vitro: Data was measured in triplicate, and IC50 values are given as mean values ± SD.

With `Brc1cccc(/C=N/Nc2nc(N/N=C/c3cccc(Br)c3)nc(N3CCOCC3)n2)c1` [compound 6c, 2,4-Bis[(E)-2-[(3-bromophenyl)methylidene]hydrazin-1-yl]-6-(morpholin-4-yl)-1,3,5-triazine], the “Mean GI %” value in [1] is on record as 66%. In addition, the IC50 in the data set “in vitro” was 53700 ± 2940 nM; on IDH2^R140Q it was 102 ± 4.97 nM; against wild type IDH2 it was 2930 ± 110 nM. For the same compound, the inhibition at 10 µM in the data set with RXF 393 is 168%; in the data set with RPMI-8226, 65.8%; in the data set with HL-60(TB) it was 110%; in the data set with HCT-15 it was 109%; with SF-295, 70.9%. In addition, the GI50 with RXF 393 stood at 160 nM; with RPMI-8226, 1680 nM; with HL-60(TB), 150 nM; in the data set with HCT-15, 420 nM; with SF-295, 4940 nM. In addition, the “expression of active caspase 9 in comparison to the control” value in the data set on active Caspase 9 is listed as approximately 4 fold. Also, the “expression of active caspase 3 in comparison to the control” value with active Caspase 3 is “about 3 fold”. In the data set with HL-60(TB) cells (158 nM), the “increase of apoptotic cells at the pre-G1 phase compared to DMSO” value is on record as 14 fold. For the same compound, the “Cell cycle distribution %G0–G1” value with HL-60(TB) cells (GI50 concentration (158 nM)) is 54.06%. Further, the “Cell cycle distribution %G2/M” value with HL-60(TB) cells (GI50 concentration (158 nM)) is listed as 4.76%. In addition, the “Cell cycle distribution %Pre-G1” value in the data set on HL-60(TB) cells (GI50 concentration (158 nM)) was found to be 28.02%. Moreover, the “Cell cycle distribution %S” value in the data set on HL-60(TB) cells (GI50 concentration (158 nM)) was found to be 41.18%.

As to `Fc1cccc(/C=N/Nc2nc(N/N=C/c3cccc(F)c3)nc(N3CCCCC3)n2)c1` [compound 7e, 2,4-Bis[(E)-2-[(3-Fluorophenyl)methylidene]hydrazin-1-yl]-6-(piperidin-1-yl)-1,3,5-triazine], the “Mean GI %” value in data set [1] is 10.18%. Moreover, the inhibition at 10 µM in the data set with RXF 393 was -12.5%; in the data set on RPMI-8226 it was 38.8%; with HL-60(TB), 31.9%; with HCT-15 it was 29.2%; in the data set on SF-295, 15.6%. Besides, the IC50 against IDH2^R140Q turned out to be 176 ± 8.6 nM; at wild type IDH2, 5070 ± 200 nM.

Consider `Fc1cccc(Cl)c1/C=N/Nc1nc(N/N=C/c2c(F)cccc2Cl)nc(N2CCCCC2)n1` [compound 7l, 2,4-Bis[(E)-2-[(2-Chloro-6-fluorophenyl)methylidene]hydrazin-1-yl]-6-(piperidin-1-yl)-1,3,5-triazine], for which, in data set [1], the “Mean GI %” value is 81% and 81.15%. The inhibition at 10 µM with RXF 393 was found to be 96.6%; in the data set with RPMI-8226, 96.7%; in the data set with HL-60(TB), 98.7%; in the data set on HCT-15 it was 96.1%; with SF-295, 97.4%. Also, the GI50 with RXF 393 amounted to 2650 nM; in the data set with RPMI-8226, 2260 nM; in the data set with HL-60(TB), 2000 nM; in the data set on HCT-15, 2820 nM; in the data set on SF-295 it was 1010 nM. Moreover, the IC50 against IDH2^R140Q stood at 160 ± 7.81 nM; against wild type IDH2 it was 9500 ± 370 nM.
